PubChem BioAssay AID1963981 (Molecular Pharmacology Branch, DTP, NCI, 2024)

System: 354836-022-R-J1-PDC multicell spheroid viability
Assay: Anticancer human tumor 354836-022-R-J1-PDC patient-derived head and neck squamous cell carcinoma cell line growth inhibition [PI3K]
Details: for viability, T/C: stronger effect = lower value
From the text: Combinatorial screen of targeted agents with the PI3K inhibitors inavolisib, alpelisib, duvelisib, and copanlisib in multi-cell type tumor spheroids
A high-throughput screen of multi-cell type tumor spheroids was designed to identify active combinations of targeted small molecules and PI3K pathway inhibitors. Complex spheroids include a stromal component modeled by human endothelial cells (HUVEC) and fibroblasts modeled by human mesenchymal stem cells (MSCs). The concentration ranges selected for each drug and investigational agent were based upon clinically achievable concentrations if the clinical Cmax of the agent was known.
Compounds. The drugs and investigational agents: inavolisib (NSC800729), alpelisib (NSC765974), duvelisib (NSC772469), copanlisib (NSC816437), ipatasertib (NSC767898), afuresertib (NSC778305), talazoparib (NSC767125), sapanisertib (NSC764658), selumetinib (NSC741078), tovorafenib (DAY101, NSC766906), vemurafenib (NSC761431), ravoxertinib (NSC781343), sotorasib (NSC818433), MRTX1133 (NSC 836407), abemaciclib (NSC 768073), palbociclib (NSC758247), venetoclax (NSC 766270), SY5609 (NSC837396), enzalutamide (NSC755605), and darolutamide (NSC825331), were obtained from the National Cancer Institute (NCI) Developmental Therapeutics Program Chemical Repository. The FDA-approved anticancer drug set is available from the NCI Developmental Therapeutics Program. […] The stock solutions were prepared in dimethyl sulfoxide (DMSO, Sigma-Aldrich, St. Louis, MO, cat. D2650) at 800-fold the tested concentration and stored at -70 degrees C prior to their use. All drugs and investigational agents were tested over a range starting from a high concentration at or near the clinical Cmax and decreasing in half-log increments. If the clinical Cmax for an agent had not been determined, the highest concentration tested was 10 microM.
Cell Culture. All cells were maintained in an incubator at 37 degrees C and 5% CO2 with 95% humidity. The PDC lines were cultured according to standard operating procedures established by the NCI PDMR (https://pdmr.cancer.gov/sops/default.htm). All PDCs were thawed and cultured in Matrigel-coated flasks prepared with a working solution of 1X Ham's F-12 nutrient mix, without supplementation (Invitrogen, Waltham, MA, cat. 11765054), 100 U/mL penicillin-streptomycin (Invitrogen, cat. 15140122), and 2.5% Matrigel (Corning Inc., Corning, NY, cat. 354248) for the first three passages. The 354836-022-R-J1-PDC, 475296-252-R-J1-PDC, and 997726-040-R-J2-PDC lines were cultured in 6A media, which includes advanced DMEM/F-12 (Thermo Fisher Scientific, cat. 12634028), 10 mM HEPES (Thermo Fisher Scientific, cat. 15630080), 1X GlutaMAX supplement (Thermo Fisher Scientific, cat. 35050061), 0.1 mg/mL primocin (InvivoGen, San Diego, CA, cat. ant-pm-2), 10% defined fetal bovine serum, heat inactivated (HyClone Laboratories Inc., Logan, UT, cat. SH30070.03HI), 50% L-WRN conditioned media (ATCC, cat. CRL-3276), 1.25 mM N-Acetyl-L-cysteine (Sigma-Aldrich, cat. A9165), 10 mM nicotinamide (Sigma-Aldrich, cat. N0636), 1X B-27 supplement (Thermo Fisher Scientific, cat. 17504044), 1X N-2 supplement (Thermo Fisher Scientific, cat. 17502048), and 10 microM Y-27632 dihydrochloride (Tocris Bioscience, Bristol, United Kingdom, cat. 1254). The 624824-186-R-J2-PDC line was cultured in 6C/Colon 1B media, which includes all 6A media components plus 50 ng/mL human EGF recombinant protein (Thermo Fisher Scientific, cat. PHG0311). […]

[1] = curve of first compound, second compound 0.0316 µM
[2] = curve of first compound, second compound 0.1 µM
[3] = curve of first compound, second compound 0.316 µM
[4] = curve of first compound, second compound 1 µM
[5] = curve of first compound, second compound 3.16 µM
[6] = curve of first compound, second compound 10 µM
[7] = second compound 0.0316 µM, first compound 0.0316 µM
[8] = second compound 0.0316 µM, first compound 0.1 µM
[9] = second compound 0.0316 µM, first compound 0.316 µM
[10] = second compound 0.0316 µM, first compound 1 µM
[11] = second compound 0.0316 µM, first compound 3.16 µM
[12] = second compound 0.0316 µM, first compound 10 µM
[13] = second compound 0.1 µM, first compound 0.0316 µM
[14] = second compound 0.1 µM, first compound 0.1 µM
[15] = second compound 0.1 µM, first compound 0.316 µM
[16] = second compound 0.1 µM, first compound 1 µM
[17] = second compound 0.1 µM, first compound 3.16 µM
[18] = second compound 0.1 µM, first compound 10 µM
[19] = second compound 0.316 µM, first compound 0.0316 µM
[20] = second compound 0.316 µM, first compound 0.1 µM
[21] = second compound 0.316 µM, first compound 0.316 µM
[22] = second compound 0.316 µM, first compound 1 µM
[23] = second compound 0.316 µM, first compound 3.16 µM
[24] = second compound 0.316 µM, first compound 10 µM
[25] = second compound 1 µM, first compound 0.0316 µM
[26] = second compound 1 µM, first compound 0.1 µM
[27] = second compound 1 µM, first compound 0.316 µM
[28] = second compound 1 µM, first compound 1 µM
[29] = second compound 1 µM, first compound 3.16 µM
[30] = second compound 1 µM, first compound 10 µM
[31] = second compound 3.16 µM, first compound 0.0316 µM
[32] = second compound 3.16 µM, first compound 0.1 µM
[33] = second compound 3.16 µM, first compound 0.316 µM
[34] = second compound 3.16 µM, first compound 1 µM
[35] = second compound 3.16 µM, first compound 3.16 µM
[36] = second compound 3.16 µM, first compound 10 µM
[37] = second compound 10 µM, first compound 0.0316 µM
[38] = second compound 10 µM, first compound 0.1 µM
[39] = second compound 10 µM, first compound 0.316 µM
[40] = second compound 10 µM, first compound 1 µM
[41] = second compound 10 µM, first compound 3.16 µM
[42] = second compound 10 µM, first compound 10 µM
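Further: spheroids exposed to agents for seven days before the viability read.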

CC1(C)CCC(CN2CCN(c3ccc(C(=O)NS(=O)(=O)c4ccc(NCC5CCOCC5)c([N+](=O)[O-])c4)c(Oc4cnc5[nH]ccc5c4)c3)CC2)=C(c2ccc(Cl)cc2)C1 + Cc1nc(NC(=O)N2CCCC2C(N)=O)sc1-c1ccnc(C(C)(C)C(F)(F)F)c1 showed an IC50 [1] of 4530 nM, an IC50 [2] of 4080 nM and an IC50 [3] of 4270 nM. It also gave an IC50 [4] of 4310 nM, an IC50 [5] of 2740 nM and an IC50 [6] of less than 31.6 nM. It also gave a viability, T/C [7] of 99.3%, a viability, T/C [8] of 82.3% and a viability, T/C [9] of 94.3%. The viability, T/C [10] was 91.7%, the viability, T/C [11] was 70.1% and the viability, T/C [12] was 5.83%. The viability, T/C [13] was 109%, the viability, T/C [14] was 93% and the viability, T/C [15] was 97.1%. It also gave a viability, T/C [16] of 100%, a viability, T/C [17] of 63% and a viability, T/C [18] of 4.78%. For the same molecule, the viability, T/C [19] was 99.7%, the viability, T/C [20] was 86.4% and the viability, T/C [21] was 79.5%. It also gave a viability, T/C [22] of 91.9%, a viability, T/C [23] of 65.4% and a viability, T/C [24] of 6.04%. The viability, T/C [25] was 83.7%, the viability, T/C [26] was 79.6% and the viability, T/C [27] was 88.4%. It also gave a viability, T/C [28] of 79.7%, a viability, T/C [29] of 67% and a viability, T/C [30] of 4.76%. The viability, T/C [31] was 68.3%, the viability, T/C [32] was 66.5% and the viability, T/C [33] was 72.1%. For the same molecule, the viability, T/C [34] was 60.8%, the viability, T/C [35] was 48.8% and the viability, T/C [36] was 4.11%. The viability, T/C [37] was 38.1%, the viability, T/C [38] was 39.8% and the viability, T/C [39] was 43.8%. For the same molecule, the viability, T/C [40] was 37.4%, the viability, T/C [41] was 34.6% and the viability, T/C [42] was 7.88%.

With C[C@@H](NC(=O)c1ncnc(N)c1Cl)c1ncc(C(=O)Nc2cc(C(F)(F)F)c(Cl)cn2)s1 the viability, T/C (compound 0.0316 µM) was 105% [middle of 4 runs], the viability, T/C (compound 0.1 µM) was 99.9% [middle of 4 runs] and the viability, T/C (compound 0.316 µM) was 99.3% [middle of 4 runs]. The viability, T/C (compound 1 µM) was 98.5% [middle of 4 runs], the viability, T/C (compound 3.16 µM) was 105% [middle of 4 runs] and the viability, T/C (compound 10 µM) was 70.9% [middle of 4 runs]. For the same molecule, the IC50 (curve of compound) was greater than 10000 nM.

CC(C)NCC(C(=O)N1CCN(c2ncnc3c2C(C)CC3O)CC1)c1ccc(Cl)cc1 (stereo not drawn) + CC(Nc1ncnc2nc[nH]c12)c1cc2cccc(Cl)c2c(=O)n1-c1ccccc1 showed an IC50 [1] of 317 nM, an IC50 [2] of 490 nM and an IC50 [3] of 340 nM. The IC50 [4] was 491 nM, the IC50 [5] was 383 nM and the IC50 [6] was 454 nM. The viability, T/C [7] was 87.3%, the viability, T/C [8] was 75.8% and the viability, T/C [9] was 47.8%. It also gave a viability, T/C [10] of 27.4%, a viability, T/C [11] of 10.1% and a viability, T/C [12] of 3.75%. For the same molecule, the viability, T/C [13] was 90.7%, the viability, T/C [14] was 79.7% and the viability, T/C [15] was 52.3%. For the same molecule, the viability, T/C [16] was 43.7%, the viability, T/C [17] was 12.9% and the viability, T/C [18] was 3.85%. For the same molecule, the viability, T/C [19] was 100%, the viability, T/C [20] was 77.7% and the viability, T/C [21] was 50.1%. The viability, T/C [22] was 32.2%, the viability, T/C [23] was 7.64% and the viability, T/C [24] was 5.53%. For the same molecule, the viability, T/C [25] was 95.2%, the viability, T/C [26] was 84.8% and the viability, T/C [27] was 64.3%. It also gave a viability, T/C [28] of 27.3%, a viability, T/C [29] of 13.8% and a viability, T/C [30] of 3.16%. The viability, T/C [31] was 102%, the viability, T/C [32] was 82.3% and the viability, T/C [33] was 52.5%. For the same molecule, the viability, T/C [34] was 30.8%, the viability, T/C [35] was 12.4% and the viability, T/C [36] was 4.48%. The viability, T/C [37] was 87.5%, the viability, T/C [38] was 76.7% and the viability, T/C [39] was 61.2%. The viability, T/C [40] was 28.4%, the viability, T/C [41] was 11% and the viability, T/C [42] was 3.05%.

For CC(C)NCC(C(=O)N1CCN(c2ncnc3c2C(C)CC3O)CC1)c1ccc(Cl)cc1 (stereo not drawn) + COc1c(OCCCN2CCOCC2)ccc2c3n(c(=NC(=O)c4cnc(N)nc4)nc12)CCN3, the IC50 (curve of first compound, second compound 0.00316 µM) was 305 nM, the IC50 (curve of first compound, second compound 0.01 µM) was 227 nM and the IC50 [1] was 119 nM. The IC50 [2] was less than 31.6 nM, the IC50 [3] was less than 31.6 nM and the IC50 [4] was less than 31.6 nM. The viability, T/C (second compound 0.00316 µM, first compound 0.0316 µM) was 90.8%, the viability, T/C (second compound 0.00316 µM, first compound 0.1 µM) was 68.1% and the viability, T/C (second compound 0.00316 µM, first compound 0.316 µM) was 52.3%. It also gave a viability, T/C (second compound 0.00316 µM, first compound 1 µM) of 28.5%, a viability, T/C (second compound 0.00316 µM, first compound 3.16 µM) of 9.34% and a viability, T/C (second compound 0.00316 µM, first compound 10 µM) of 2.4%. For the same molecule, the viability, T/C (second compound 0.01 µM, first compound 0.0316 µM) was 87.6%, the viability, T/C (second compound 0.01 µM, first compound 0.1 µM) was 66.5% and the viability, T/C (second compound 0.01 µM, first compound 0.316 µM) was 42.9%. It also gave a viability, T/C (second compound 0.01 µM, first compound 1 µM) of 24.8%, a viability, T/C (second compound 0.01 µM, first compound 3.16 µM) of 9.85% and a viability, T/C (second compound 0.01 µM, first compound 10 µM) of 2.96%. It also gave a viability, T/C [7] of 68.8%, a viability, T/C [8] of 52.7% and a viability, T/C [9] of 34.5%. The viability, T/C [10] was 19.4%, the viability, T/C [11] was 7.83% and the viability, T/C [12] was 2.13%. The viability, T/C [13] was 43%, the viability, T/C [14] was 39.6% and the viability, T/C [15] was 26.3%. It also gave a viability, T/C [16] of 13.3%, a viability, T/C [17] of 3.65% and a viability, T/C [18] of 1.29%. It also gave a viability, T/C [19] of 11.6%, a viability, T/C [20] of 11.2% and a viability, T/C [21] of 5.73%. It also gave a viability, T/C [22] of 3.46%, a viability, T/C [23] of 1.76% and a viability, T/C [24] of 0.91%. It also gave a viability, T/C [25] of 1.35%, a viability, T/C [26] of 1.54% and a viability, T/C [27] of 1.33%. For the same molecule, the viability, T/C [28] was 1.12%, the viability, T/C [29] was 1.14% and the viability, T/C [30] was 0.88%.
